Series [1] is described as follows: Oral vs. sublingual delivery of cannabidiol in a porcine model (plasma concentration by HPLC). It counts as in vivo, Yorkshire pigs. Particulars: sublingual electrospun polyethylene oxide fiber scaffold ("strip") vs oral "gummy"; 10 mg cannabidiol each; representative pig 7-18; blood 3-120 min; FIG. 3. The method, then:
Four healthy Yorkshire pigs were selected to receive both oral and sublingual administrations of cannabidiol (i.e., each animal received both an oral administration and a sublingual administration separated by 48 hours). For the sublingual administration, a scaffold comprising fibers as described herein was used for each animal. Specifically, the fibers were electrospun using a polymer solution comprising cannabidiol and 13 wt % 100,000 molecular weight polyethylene oxide dissolved in dichloromethane. The cannabidiol was dispersed within the resulting electrospun polyethylene oxide fibers, as described herein. The resulting electrospun polyethylene oxide fibers comprised 40 wt % cannabidiol (relative to the polyethylene oxide mass) and 50 wt % confectionary sugar (i.e., for every 10 mg of polyethylene oxide, 4 mg of cannabidiol and 5 mg of confectionary sugar were added).
(§1) The scaffold was placed under the tongue of each animal and allowed to dissolve in place. A catheter was placed in the animal's vein and used to withdraw blood at baseline and at 3, 9, 15, 30, 45, 60, and 120 minutes post-administration. […]
Each blood sample was analyzed using high-performance liquid chromatography (HPLC) to determine the plasma concentration of cannabidiol in ng/mL. […]

Series [2] is described as follows: Oral vs. sublingual delivery of sildenafil citrate in a porcine model (plasma concentration by HPLC). It counts as in vivo, Yorkshire pigs. Particulars: sublingual electrospun polyethylene oxide fiber scaffold ("strip") vs oral "pill", 25 mg sildenafil citrate each, representative pig 4-17, FIG. 4. The method, then: Four healthy Yorkshire pigs were selected to receive both oral and sublingual administrations of sildenafil citrate (i.e., each animal received both an oral administration and a sublingual administration separated by 48 hours). For the sublingual administration, a scaffold comprising fibers as described herein was used for each animal. Specifically, the fibers comprised were electrospun using a polymer solution comprising sildenafil citrate and 13 wt % 100,000 molecular weight polyethylene oxide dissolved in dichloromethane. The sildenafil citrate was dispersed within the resulting electrospun polyethylene oxide fibers, as described herein. The resulting electrospun polyethylene oxide fibers comprised 25 wt % sildenafil citrate (relative to the polyethylene oxide mass) and 50 wt % confectionary sugar (i.e., for every 10 mg of polyethylene oxide, 2.5 mg of sildenafil citrate and 5 mg of confectionary sugar were added).
as §1
Each blood sample was analyzed using HPLC to determine the plasma concentration of sildenafil citrate in ng/mL. […]

Each structure is given as a SMILES string. Where a name gives a salt, the structure may show the parent alone.

`C=C(C)[C@@H]1CCC(C)=C[C@H]1c1c(O)cc(CCCCC)cc1O` [cannabidiol]: the “plasma concentration of cannabidiol, sublingual compared to oral administration” value in series [1] is “higher plasma concentration in a shorter period of time”.
With `CCCc1nn(C)c2c(=O)[nH]c(-c3cc(S(=O)(=O)N4CCN(C)CC4)ccc3OCC)nc12` [sildenafil citrate], the “duration of the higher plasma concentration of sildenafil citrate, sublingual compared to oral administration” value in series [2] is recorded as “maintained the higher plasma concentration over a longer period of time”. Moreover, the “plasma concentration of sildenafil citrate, sublingual compared to oral administration” value in series [2] (blood 3-120 min) is “higher plasma concentration in a shorter period of time”.
